SMILES strings stand for the structures. Where only a bound is given, the exact number is not on record here.

We go through two compounds from patent publication US20100004333A1, “COMPOSITIONS AND METHODS FOR TREATING CARDIOVASCULAR DISORDERS” (priority 2004, published 2010).

For data set [1], the system named is aortic rings from rabbits. It counts as cell-based, New Zealand White rabbits. To be noted: for Protection of aortic rings from HOCl-induced loss of response to ACh: 10 min pre-incubation with 10, 25 or 100 μM, FIG. 7. The method, then:
All other reagents were of the highest quality available. Buffers were routinely filtered, argon-flushed and stored at 4° C. prior to use. Solutions of HOCl were prepared freshly before use by diluting reagent HOCl (Aldrich) into phosphate buffer (250 mM, pH 7.0) and standardizing with ε235 nm˜100 M^−1cm^−1 (hypochlorous acid) and ε290 nm˜300 M^−1cm^−1 (hypochlorite), as described in Journal of Physical Chemistry 1966, 70:3798-3805. Animals: New Zealand White rabbits (2.5-3 kg) were obtained from a commercial farm (Wauchope, NSW Australia) and housed individually for the entire study period. […] Feed and water were provided ad libitum for a period of 4 weeks judged to be sufficient time for circulating drug levels to reach a maximum (data not shown). […] The local ethics committee approved the study. Vascular reactivity: Perfused rabbit aortas were harvested and vascular reactivity studies performed as described in Circulation 2003, 107:2031-2036. Briefly, within 2 h of isolation, ring segments ˜5 mm in length were mounted in a myobath system (World Precision Instruments, Sarasota, Fla.) containing 20 mL of Krebs solution aerated at 37° C. with 5% CO2(g), and the dilatory response of half maximally norepinephrine pre-constricted rings to incremental doses of ACh (10^−9-10^−5 mol/L) determined. Where indicated, reagent HOCl (final concentration 400 μM) was added to the Krebs solution and the rings incubated for 5 min prior to thorough washing, pre-constriction and assessment of vessel relaxation. In some studies rings were incubated with probucol or DTBP for 10 min, washed thoroughly and then exposed to HOCl prior to assessing endothelium-dependent relaxation. A maximum of three consecutive sequences of constriction/relaxation were performed for each ring. […] Probucol oxidation studies: Probucol is a highly lipophilic compound (partition coefficient between octanol and water=[…]) that readily distributes into lipoproteins. […] The aqueous phase was analyzed for the content of sulfate anion (SO4^2−) by ion exchange chromatography (see below). Analytical analyses: Probucol, DTBP, BP and DPQ were analyzed by gradient reversed-phase HPLC and quantified by peak area comparison with authentic standards. […] Other oxidation products resolved by this HPLC system were also quantified by peak area comparison, using analytically pure samples obtained from semi-preparative (LC-18, 20 mm×25 cm, 5 μm) fractionation of the reaction mixture. Isolated samples were dried under vacuum, re-dissolved to a known concentration and assessed for purity by analytical HPLC (LC-18, 4.6 mm×25 cm, 5 μm) in combination with mass spectrometry (see below). […]

Data set [2] is described as follows: Oxidation of probucol or DTBP in hexane by 1e- and 2e-oxidants (HPLC, ion exchange chromatography). The data set is classed as physicochemical. The settings on record: for Depletion: compound 1 mM in hexane, 60 min, 37° C.; for SO4^2− in aqueous phase of reaction mixture: oxidized with 5-mol equivalent HOCl, antioxidant-free mixture 58±5 nmol. The method, then: All other reagents were of the highest quality available. Buffers were routinely filtered, argon-flushed and stored at 4° C. prior to use. Solutions of HOCl were prepared freshly before use by diluting reagent HOCl (Aldrich) into phosphate buffer (250 mM, pH 7.0) and standardizing with ε235 nm˜100 M^−1cm^−1 (hypochlorous acid) and ε290 nm˜300 M^−1cm^−1 (hypochlorite), as described in Journal of Physical Chemistry 1966, 70:3798-3805. Animals: New Zealand White rabbits (2.5-3 kg) were obtained from a commercial farm (Wauchope, NSW Australia) and housed individually for the entire study period. […] Feed and water were provided ad libitum for a period of 4 weeks judged to be sufficient time for circulating drug levels to reach a maximum (data not shown). […] The local ethics committee approved the study. Vascular reactivity: Perfused rabbit aortas were harvested and vascular reactivity studies performed as described in Circulation 2003, 107:2031-2036. Briefly, within 2 h of isolation, ring segments ˜5 mm in length were mounted in a myobath system (World Precision Instruments, Sarasota, Fla.) containing 20 mL of Krebs solution aerated at 37° C. with 5% CO2(g), and the dilatory response of half maximally norepinephrine pre-constricted rings to incremental doses of ACh (10^−9-10^−5 mol/L) determined. Where indicated, reagent HOCl (final concentration 400 μM) was added to the Krebs solution and the rings incubated for 5 min prior to thorough washing, pre-constriction and assessment of vessel relaxation. In some studies rings were incubated with probucol or DTBP for 10 min, washed thoroughly and then exposed to HOCl prior to assessing endothelium-dependent relaxation. A maximum of three consecutive sequences of constriction/relaxation were performed for each ring. Preparation of Aortic Homogenates: Aortic Rings Used in the Vascular Function Studies were removed and immediately cut into small pieces, frozen in liquid nitrogen, and then pulverized and homogenized as described. An aliquot (50 μL) of homogenate was removed for protein determination (BCA assay, Sigma) and the remainder extracted into methanol/hexane (5:1, v/v), the resulting hexane fraction dried and the residue suspended in isopropanol for analysis of probucol and its oxidation products. For cGMP determinations, aortic segments were treated with vehicle (control) or HOCl (400 μM) before addition of 1 μM ACh in the presence of 200 μM 3-isobutyl-1-methylxanthine and measurement of cGMP in the homogenate using a kit (Cayman Chemical, Ann Arbor, Mich.). Probucol oxidation studies: Probucol is a highly lipophilic compound (partition coefficient between octanol and water=[…]) that readily distributes into lipoproteins. To mimic the biological situation, oxidation reactions were therefore performed with probucol (or DTBP) dissolved in hexane (2 mL) to which aliquots of HOCl were added to give the final concentrations indicated. The heterogeneous mixtures were shaken vigorously at 37° C. for 60 min, then placed on ice after adding 1 mL water, the hexane phase removed, dried under vacuum and resuspended in isopropanol (200 μL) for HPLC analyses (see below). The aqueous phase was analyzed for the content of sulfate anion (SO4^2−) by ion exchange chromatography (see below). Analytical analyses: Probucol, DTBP, BP and DPQ were analyzed by gradient reversed-phase HPLC and quantified by peak area comparison with authentic standards. Under the conditions used, BP, DTBP, probucol and DPQ eluted at 12.5, 19.2, 20.8 and 28.4 min, respectively. Other oxidation products resolved by this HPLC system were also quantified by peak area comparison, using analytically pure samples obtained from semi-preparative (LC-18, 20 mm×25 cm, 5 μm) fractionation of the reaction mixture. Isolated samples were dried under vacuum, re-dissolved to a known concentration and assessed for purity by analytical HPLC (LC-18, 4.6 mm×25 cm, 5 μm) in combination with mass spectrometry (see below). […]

The nature of data set [3]: Stopped-flow kinetics of reaction with HOCl in 70% aqueous ethanol. The data set is classed as physicochemical. The settings on record: 70% EtOH, 25° C.
Data set [4] is described as follows: Total aortic drug concentration in apoE−/− mice, 5 months. It counts as in vivo. From the text:
ApoE−/− mouse model. Four groups of male apoE−/− mice (8-10 weeks, Animal Resources Centre, Perth, Australia) were fed a high fat diet based on Harlan Teklad diet TD88137±1% (wt/wt) probucol (96% purity, a gift from AstraZeneca, Sweden), 0.02% DTBP, or 0.02% BP (Polysciences, Warrington, Pa.) for 5 months. Tissue harvesting and analyses were done as described in Examples 1 and 3, using 15 and 10 mice of each group for biochemical and histological analyses, respectively. Histology and immunohistochemistry. Aortic lesion assessment was carried out at four sites (sinus, arch, thoracic and abdominal aorta) as described in Example 1. Immediately adjacent sections were employed for immunohistochemistry, using Mac-3 (macrophages, dilution 1:200, DAKO), PCNA (cell proliferation, dilution 1:500, DAKO) and anti-rat HO-1 monoclonal antibody (dilution 1:50, Santa Cruz) with avidin-biotin-horseradish peroxidase for signal detection (Vectorstain Elite ABC Kit, Vector Laboratories). Apoptosis was assessed using the TUNEL assay kit (Roche) according to the manufacture's instructions. Digital images were taken for quantitative morphometric analysis. Mac-3^+ areas were determined using Adobe Photoshop V6.0 by tracing. Total cell profiles, TUNEL^+ and PCNA^+ cells were counted manually at high magnification (40× objective). A single operator using coded samples performed all analyses blinded. Heme oxygenase. Heme oxygenase activity was determined in microsomes prepared from homogenized aortic tissue and assessed by HPLC as described in Circulation 2004, 110: 1855-1860. Statistics. All data are expressed as mean±SEM. One-way ANOVA and the student-Newman-Keul's test were used to evaluate differences between groups, with P<0.05 considered significant.

The nature of data set [5]: Oxidation of probucol or DTBP in hexane by 1e- and 2e-oxidants (HPLC, ion exchange chromatography). The settings on record: compound 1 mM in hexane, 60 min, 37° C. It counts as physicochemical.
For data set [6] the following is noted: versus 10.8 for octanol; cited from earlier work.

Regarding `CC(C)(Sc1cc(C(C)(C)C)c(O)c(C(C)(C)C)c1)Sc1cc(C(C)(C)C)c(O)c(C(C)(C)C)c1` [probucol], the “Protection of aortic rings from HOCl-induced loss of response to ACh” value in data set [1] (washed, then 400 μM HOCl) was “protected the vessels from HOCl-induced loss of response to ACh in a concentration dependent manner”. Further, in data set [1] (10 min pre-incubation, washed, then 400 μM HOCl), the “Concentration at which full protection from HOCl-induced loss of response to ACh was seen” value was found to be 100 µM. In data set [1] (rings pre-treated with 100 μM, FIG. 7B), the “Tissue cGMP in response to ACh” value was “increased tissue content of cGMP”. In addition, the Depletion is reported as 0 ± 0% in data set [2] (oxidant AAPH 5 mM); above 90% in data set [2] (oxidant HOCl 5 mM, air); 15 ± 2% in data set [5] (oxidant Ce^4+ 5 mM); 2 ± 1% in data set [5] (oxidant Cu^2+ 5 mM); 3 ± 1% in data set [5] (oxidant Fe^2+/H2O2 5 mM); 0 ± 0% in data set [5] (oxidant H2O2 5 mM). The Depletion was 98 ± 4% in data set [5] (oxidant HOCl 5 mM, air); 7 ± 1% in data set [5] (oxidant ONOO^− 5 mM); above 90% in data set [5] (oxidant PbO2 5 mM); 99 ± 1.1% in data set [5] (oxidant PbO2 5 mM, listed as Probucol). Moreover, the “SO4^2− in aqueous phase of reaction mixture” value in data set [2] turned out to be 139 ± 14 nmol. For the same compound, the “Rate constant k1 for oxidation by HOCl (rapid phase of DPQ accumulation)” value in data set [3] is on record as 2.7±0.3×10^2 M^−1 s^−1. Moreover, in data set [3], the “Rate constant k2 for oxidation by HOCl (slow phase of DPQ accumulation)” value was 0.7±0.2×10^2 M^−1 s^−1. In data set [4] (apoE−/− mice, high fat diet 5 months, 1% probucol, 0.02% DTBP, 0.02% BP), the “Total aortic drug concentration” value was 21.8±8.4 nmol/mg protein. Further, the “DPQ Yield” value is 0 ± 0 µM in data set [5] (oxidant AAPH 5 mM); 78 ± 7.9 µM in data set [5] (oxidant Ce^4+ 5 mM); 0.9 ± 0.1 µM in data set [5] (oxidant Cu^2+ 5 mM); 8.7 ± 1.7 µM in data set [5] (oxidant Fe^2+/H2O2 5 mM); 0 ± 0 µM in data set [5] (oxidant H2O2 5 mM); 102 ± 11 µM in data set [5] (oxidant HOCl 5 mM). Besides, the “DPQ Yield” value was determined as 2.1 ± 0.2 µM in data set [5] (oxidant ONOO^− 5 mM) and 92 ± 21 µM in data set [5] (oxidant PbO2 5 mM). In addition, in data set [6], the “Partition coefficient between octanol and water” value is reported as 10.
Regarding `CC(C)(C)c1cc(SSc2cc(C(C)(C)C)c(O)c(C(C)(C)C)c2)cc(C(C)(C)C)c1O` [DTBP, 4,4′-dithiobis(2,6-di-tert-butyl-phenol)], the “Protection of aortic rings from HOCl-induced loss of response to ACh” value in data set [1] (washed, then 400 μM HOCl) is given as “protected aortic rings from HOCl-induced dysfunction when added in vitro”. Moreover, the Depletion is reported as 0 ± 0% in data set [2] (oxidant AAPH 5 mM); 96 ± 3% in data set [2] (oxidant HOCl 5 mM, air); 16 ± 1% in data set [5] (oxidant Ce^4+ 5 mM); 0 ± 0% in data set [5] (oxidant Cu^2+ 5 mM); 1 ± 0% in data set [5] (oxidant Fe^2+/H2O2 5 mM); 0 ± 0% in data set [5] (oxidant H2O2 5 mM). For the same compound, the values for the Depletion in data set [5] (oxidant ONOO^− 5 mM) and in data set [5] (oxidant PbO2 5 mM) were 6 ± 1% and 99 ± 0.4%, respectively. Moreover, the “SO4^2− in aqueous phase of reaction mixture” value in data set [2] was 204 ± 43 nmol. Besides, the “Rate constant k for oxidation by HOCl (single rate-determining process)” value in data set [3] is listed as 0.7±0.1×10^2 M^−1 s^−1. Moreover, in data set [4] (male, apoE−/−, mouse, in vivo, 5 months), the “Total aortic drug concentration” value came out at 7.1±1.4 nmol/mg protein. The “Bioavailability relative to probucol” value in data set [4] (mouse, in vivo) is reported as “clearly superior bioavailability compared to probucol”. The “DPQ Yield” value in data set [5] (oxidant AAPH 5 mM) was 0 ± 0 µM; in data set [5] (oxidant Ce^4+ 5 mM), 89 ± 11 µM; in data set [5] (oxidant Cu^2+ 5 mM), 0 ± 0 µM; in data set [5] (oxidant Fe^2+/H2O2 5 mM) it was 4.8 ± 3.7 µM; in data set [5] (oxidant H2O2 5 mM) it was 0 ± 0 µM; in data set [5] (oxidant HOCl 5 mM) it was 91 ± 8.7 µM. The “DPQ Yield” value in data set [5] (oxidant ONOO^− 5 mM) is 1.9 ± 0.6 µM; in data set [5] (oxidant PbO2 5 mM) it was 145 ± 8.9 µM.
